Legend:
[1] = system: rat C6 glioma tumor xenografts; test: Rat C6 glioma tumor xenografts in female BALB/C mice; format: in vivo; conditions: for Delta tumor volumes (mean mm^3±SEM): q7d (i.v., days 3 and 10) alone, control 1289±178
Method: STI571 Alone, Epothilone B (EPO906) Alone and the Combination of STI571 Plus Epothilone B Versus Rat C6 Glioma Tumor Xenografts in Female BALB/C Mice
Tumors are initiated by the s.c. injection of 1×10^6 rat C6 cells (n=8/group). When the tumors reaches ˜75 mm^3, STI571 treatment is begun at 200 mg/kg, p.o., q24h.

[2] = system: KAT-4 mouse thyroid carcinoma; test: KAT-4 thyroid carcinoma tumors in SCID mice; format: in vivo; conditions: for effect on tumor growth: STI571 100 mg/kg gavage once daily from day 3, EPO906 0.3 mg/kg s.c. days 6, 13, 20
Method: Study on the Effects of Combining Epothilone B Treatment of KAT-4 Mouse Thyroid Carcinoma with Treatment with STI571
Epothilone B is administered s.c. once weekly. STI571, at a dose of 100 mg/kg, is administered by gavage and given once daily. Tumor volume is determined by mesurements with calipers.
In the study four groups of tumor bearing mice are analyzed: control treated mice, mice treated with either STI571 (100 mg/kg) or 0.3 mg/kg of EPO906 alone and mice treated with both drugs. Treatment is performed on mice with an average starting size of tumor of approximatly 100 mm^3. EPO906 is given at days 6, 13 and 20 and STI571 is given once daily from day 3.

| SMILES | Delta tumor volumes (mean mm^3±SEM) ([1]; EPO906 1 mg/kg) [mm^3] | Delta tumor volumes (mean mm^3±SEM) ([1]; EPO906 2 mg/kg) [mm^3] | Delta tumor volume ratio treated/controls ([1]; STI571 200 mg/kg p.o. q24h, EPO906 2 mg/kg q7d) | effect on tumor growth [2] | final tumor size as % of control tumors ([2]; end of experiment, STI571 100 mg/kg once daily, EPO906 0.3 mg/kg once weekly) [%] |
| --- | --- | --- | --- | --- | --- |
| C/C(=C\c1csc(C)n1)[C@@H]1C[C@@H]2O[C@]2(C)CCC[C@H](C)[C@H](O)[C@@H](C)C(=O)C(C)(C)[C@@H](O)CC(=O)O1 [EPO906, epothilone B] | 864±115 | 419±116 | 0.325 | statistically significant reduction of tumor growth | 69 |
| Cc1ccc(NC(=O)c2ccc(CN3CCN(C)CC3)cc2)cc1Nc1nccc(-c2cccnc2)n1 [STI571, N-{5-[4-(4-methyl-piperazino-methyl)-benzoylamido]-2-methylphenyl}-4-(3-pyridyl)-2-pyrimidine-amine] |  |  |  | no effect |  |

Reference: patent publication US7723339B2, “Combination comprising a signal transduction inhibitor and an epothilone derivative” (Novartis AG, priority 2001, dated 2010)
